From US11547697B2, “Heterocyclic compounds and uses thereof” (MILLENNIUM PHARMACEUTICALS, INC., priority 2009, dated 2023)
pIC50: −log10 of the molar value.

Tests used:
Format in all cases: biochemical
p110γ = p110γ (Homo sapiens (Human), UniProt P48736); assay: PI 3-Kinase (human) HTRF assay, p110γ; conditions: in vitro; read-out: PI3K γ IC50
Description: (§1) An exemplary system is PI 3-Kinase (human) HTRF™ Assay from Upstate. […] Briefly, the assay is a time resolved FRET assay that indirectly measures PIP3 product formed by the activity of a PI3-K. The kinase reaction is performed in a microtitre plate (e.g., a 384 well microtitre plate). The total reaction volume is approximately 20 ul per well. In the first step, each well receives 2 ul of test compound in 20% dimethylsulphoxide resulting in a 2% DMSO final concentration. Next, approximately 14.5 ul of a kinase/PIP2 mixture (diluted in 1× reaction buffer) is added per well for a final concentration of 0.25-0.3 ug/ml kinase and 10 μM PIP2. The plate is sealed and incubated for 15 minutes at room temperature. To start the reaction, 3.5 ul of ATP (diluted in 1× reaction buffer) is added per well for a final concentration of 10 μM ATP. The plate is sealed and incubated for 1 hour at room temperature. The reaction is stopped by adding 5 ul of Stop Solution per well and then 5 ul of Detection Mix is added per well. The plate is sealed, incubated for 1 hour at room temperature, and then read on an appropriate plate reader. Data is analyzed and IC50s are generated using GraphPad Prism 5. […] For PI3K α, β, δ, and γ, the nM concentration of inhibitor to reach IC50 is provided.

p110β/p85α = p110β/p85α (Homo sapiens (Human), UniProt P42338); assay: PI 3-Kinase (human) HTRF assay, p110β/p85α; conditions: in vitro; read-out: PI3K β IC50
p110β/p85α, sequence (P42338 whole entry): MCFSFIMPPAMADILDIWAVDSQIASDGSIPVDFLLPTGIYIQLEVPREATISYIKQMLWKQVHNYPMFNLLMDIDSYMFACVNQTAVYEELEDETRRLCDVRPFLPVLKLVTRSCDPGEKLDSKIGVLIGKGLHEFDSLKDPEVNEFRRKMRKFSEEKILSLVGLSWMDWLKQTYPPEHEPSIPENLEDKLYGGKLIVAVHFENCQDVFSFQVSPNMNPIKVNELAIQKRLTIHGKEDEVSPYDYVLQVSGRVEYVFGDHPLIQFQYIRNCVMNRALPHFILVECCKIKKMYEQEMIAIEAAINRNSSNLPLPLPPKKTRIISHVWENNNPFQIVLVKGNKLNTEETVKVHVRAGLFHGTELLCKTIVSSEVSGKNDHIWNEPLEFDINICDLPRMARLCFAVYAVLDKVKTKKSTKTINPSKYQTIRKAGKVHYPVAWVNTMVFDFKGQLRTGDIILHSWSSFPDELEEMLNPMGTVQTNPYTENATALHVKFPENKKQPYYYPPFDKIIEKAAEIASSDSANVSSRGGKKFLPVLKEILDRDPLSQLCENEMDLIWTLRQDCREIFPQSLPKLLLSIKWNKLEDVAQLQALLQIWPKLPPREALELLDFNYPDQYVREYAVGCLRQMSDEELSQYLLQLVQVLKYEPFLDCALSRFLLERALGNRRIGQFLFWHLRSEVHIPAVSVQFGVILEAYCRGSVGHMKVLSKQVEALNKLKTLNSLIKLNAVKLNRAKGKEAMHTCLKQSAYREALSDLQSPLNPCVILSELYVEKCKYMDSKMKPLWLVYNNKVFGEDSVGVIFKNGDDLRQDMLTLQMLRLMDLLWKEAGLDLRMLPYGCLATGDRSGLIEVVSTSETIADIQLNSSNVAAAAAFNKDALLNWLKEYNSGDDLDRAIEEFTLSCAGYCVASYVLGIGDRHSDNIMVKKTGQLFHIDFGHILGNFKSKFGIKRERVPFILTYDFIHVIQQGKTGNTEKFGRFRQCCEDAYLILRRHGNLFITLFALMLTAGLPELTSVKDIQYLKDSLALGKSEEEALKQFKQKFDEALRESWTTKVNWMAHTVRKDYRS
p110β/p85α, sequence (P27986 whole entry partner): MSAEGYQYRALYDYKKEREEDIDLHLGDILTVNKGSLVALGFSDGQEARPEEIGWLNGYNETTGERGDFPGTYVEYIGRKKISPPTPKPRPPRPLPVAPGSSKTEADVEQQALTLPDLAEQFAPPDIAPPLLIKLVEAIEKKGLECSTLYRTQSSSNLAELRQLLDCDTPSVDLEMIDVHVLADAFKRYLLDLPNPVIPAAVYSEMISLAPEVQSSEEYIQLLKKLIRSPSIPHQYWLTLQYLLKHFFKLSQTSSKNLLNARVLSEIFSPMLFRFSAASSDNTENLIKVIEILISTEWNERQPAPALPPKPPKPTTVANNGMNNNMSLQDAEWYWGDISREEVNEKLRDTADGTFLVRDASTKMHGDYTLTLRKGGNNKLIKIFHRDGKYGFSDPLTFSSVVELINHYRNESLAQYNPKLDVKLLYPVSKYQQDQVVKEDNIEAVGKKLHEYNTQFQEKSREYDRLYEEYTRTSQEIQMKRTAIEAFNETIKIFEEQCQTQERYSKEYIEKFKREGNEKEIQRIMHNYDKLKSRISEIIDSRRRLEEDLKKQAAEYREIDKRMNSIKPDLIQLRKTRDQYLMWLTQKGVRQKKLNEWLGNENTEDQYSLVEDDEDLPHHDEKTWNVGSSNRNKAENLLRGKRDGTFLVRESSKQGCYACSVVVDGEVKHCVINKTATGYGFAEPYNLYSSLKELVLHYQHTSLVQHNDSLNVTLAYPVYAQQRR
Description: as §1

p110δ/p85α = p110δ/p85α (Homo sapiens (Human), UniProt O00329); assay: PI 3-Kinase (human) HTRF assay, p110δ/p85α; conditions: in vitro; read-out: PI3K δ IC50
p110δ/p85α, sequence (O00329 whole entry): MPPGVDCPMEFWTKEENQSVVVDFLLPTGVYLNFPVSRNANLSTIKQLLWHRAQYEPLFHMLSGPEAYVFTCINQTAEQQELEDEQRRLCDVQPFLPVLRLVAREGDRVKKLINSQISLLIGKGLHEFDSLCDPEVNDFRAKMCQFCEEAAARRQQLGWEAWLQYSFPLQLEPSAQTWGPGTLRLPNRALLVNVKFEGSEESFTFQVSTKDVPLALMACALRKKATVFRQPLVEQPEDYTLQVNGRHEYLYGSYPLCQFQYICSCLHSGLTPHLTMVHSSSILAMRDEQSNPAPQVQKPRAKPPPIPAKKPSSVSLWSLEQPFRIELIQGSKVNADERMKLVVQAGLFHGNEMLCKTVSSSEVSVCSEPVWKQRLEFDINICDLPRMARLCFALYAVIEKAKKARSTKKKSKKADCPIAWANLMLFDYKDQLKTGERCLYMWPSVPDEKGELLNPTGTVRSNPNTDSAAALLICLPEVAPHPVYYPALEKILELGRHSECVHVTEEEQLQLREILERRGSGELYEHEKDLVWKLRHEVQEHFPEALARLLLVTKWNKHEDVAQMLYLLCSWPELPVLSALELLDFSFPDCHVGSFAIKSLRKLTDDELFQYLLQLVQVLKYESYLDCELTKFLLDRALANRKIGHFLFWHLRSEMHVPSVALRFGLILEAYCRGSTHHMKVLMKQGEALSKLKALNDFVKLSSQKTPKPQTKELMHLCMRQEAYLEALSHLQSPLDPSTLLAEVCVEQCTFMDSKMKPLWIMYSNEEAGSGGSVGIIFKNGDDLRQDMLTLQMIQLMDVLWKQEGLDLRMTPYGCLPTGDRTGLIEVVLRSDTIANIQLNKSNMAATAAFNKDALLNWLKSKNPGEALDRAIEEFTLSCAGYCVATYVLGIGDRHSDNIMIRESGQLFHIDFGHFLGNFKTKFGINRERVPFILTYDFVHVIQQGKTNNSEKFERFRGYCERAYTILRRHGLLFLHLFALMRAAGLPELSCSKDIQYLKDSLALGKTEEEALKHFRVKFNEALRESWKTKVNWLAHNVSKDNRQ
p110δ/p85α, sequence (P27986 whole entry partner): as the sequence (P27986 whole entry partner) above

p110α/p85α = p110α/p85α (Homo sapiens (Human), UniProt P42336); assay: PI 3-Kinase (human) HTRF assay, p110α/p85α; conditions: in vitro; read-out: PI3K α IC50
p110α/p85α, sequence (P42336 whole entry): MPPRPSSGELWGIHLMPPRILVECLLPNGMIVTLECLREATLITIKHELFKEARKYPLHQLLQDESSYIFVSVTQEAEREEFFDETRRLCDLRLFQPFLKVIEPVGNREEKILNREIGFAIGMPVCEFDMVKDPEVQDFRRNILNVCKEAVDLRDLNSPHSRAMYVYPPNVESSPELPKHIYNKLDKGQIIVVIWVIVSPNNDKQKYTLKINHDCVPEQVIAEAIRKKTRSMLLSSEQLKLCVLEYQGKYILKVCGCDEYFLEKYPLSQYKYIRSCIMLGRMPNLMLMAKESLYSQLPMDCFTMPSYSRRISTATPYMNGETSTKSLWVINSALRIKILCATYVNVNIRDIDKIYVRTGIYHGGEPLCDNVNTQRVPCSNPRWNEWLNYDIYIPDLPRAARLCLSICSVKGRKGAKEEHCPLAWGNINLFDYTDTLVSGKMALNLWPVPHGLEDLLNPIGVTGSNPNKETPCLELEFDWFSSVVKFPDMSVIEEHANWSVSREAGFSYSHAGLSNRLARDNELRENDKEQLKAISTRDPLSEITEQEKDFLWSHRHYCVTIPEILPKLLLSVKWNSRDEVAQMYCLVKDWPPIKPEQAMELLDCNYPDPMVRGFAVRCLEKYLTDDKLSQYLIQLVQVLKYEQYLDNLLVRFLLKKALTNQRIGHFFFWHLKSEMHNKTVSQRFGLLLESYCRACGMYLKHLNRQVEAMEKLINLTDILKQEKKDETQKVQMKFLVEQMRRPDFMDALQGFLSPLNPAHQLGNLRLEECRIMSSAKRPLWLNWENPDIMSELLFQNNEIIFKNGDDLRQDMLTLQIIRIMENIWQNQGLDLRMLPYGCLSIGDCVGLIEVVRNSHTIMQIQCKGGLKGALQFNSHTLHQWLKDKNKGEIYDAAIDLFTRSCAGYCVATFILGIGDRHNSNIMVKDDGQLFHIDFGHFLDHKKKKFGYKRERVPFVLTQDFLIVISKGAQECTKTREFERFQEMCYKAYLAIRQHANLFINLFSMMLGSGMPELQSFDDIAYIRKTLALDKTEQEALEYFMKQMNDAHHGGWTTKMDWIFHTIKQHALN
p110α/p85α, sequence (P27986 whole entry partner): as the sequence (P27986 whole entry partner) above

p110γ, sequence (P48736 whole entry): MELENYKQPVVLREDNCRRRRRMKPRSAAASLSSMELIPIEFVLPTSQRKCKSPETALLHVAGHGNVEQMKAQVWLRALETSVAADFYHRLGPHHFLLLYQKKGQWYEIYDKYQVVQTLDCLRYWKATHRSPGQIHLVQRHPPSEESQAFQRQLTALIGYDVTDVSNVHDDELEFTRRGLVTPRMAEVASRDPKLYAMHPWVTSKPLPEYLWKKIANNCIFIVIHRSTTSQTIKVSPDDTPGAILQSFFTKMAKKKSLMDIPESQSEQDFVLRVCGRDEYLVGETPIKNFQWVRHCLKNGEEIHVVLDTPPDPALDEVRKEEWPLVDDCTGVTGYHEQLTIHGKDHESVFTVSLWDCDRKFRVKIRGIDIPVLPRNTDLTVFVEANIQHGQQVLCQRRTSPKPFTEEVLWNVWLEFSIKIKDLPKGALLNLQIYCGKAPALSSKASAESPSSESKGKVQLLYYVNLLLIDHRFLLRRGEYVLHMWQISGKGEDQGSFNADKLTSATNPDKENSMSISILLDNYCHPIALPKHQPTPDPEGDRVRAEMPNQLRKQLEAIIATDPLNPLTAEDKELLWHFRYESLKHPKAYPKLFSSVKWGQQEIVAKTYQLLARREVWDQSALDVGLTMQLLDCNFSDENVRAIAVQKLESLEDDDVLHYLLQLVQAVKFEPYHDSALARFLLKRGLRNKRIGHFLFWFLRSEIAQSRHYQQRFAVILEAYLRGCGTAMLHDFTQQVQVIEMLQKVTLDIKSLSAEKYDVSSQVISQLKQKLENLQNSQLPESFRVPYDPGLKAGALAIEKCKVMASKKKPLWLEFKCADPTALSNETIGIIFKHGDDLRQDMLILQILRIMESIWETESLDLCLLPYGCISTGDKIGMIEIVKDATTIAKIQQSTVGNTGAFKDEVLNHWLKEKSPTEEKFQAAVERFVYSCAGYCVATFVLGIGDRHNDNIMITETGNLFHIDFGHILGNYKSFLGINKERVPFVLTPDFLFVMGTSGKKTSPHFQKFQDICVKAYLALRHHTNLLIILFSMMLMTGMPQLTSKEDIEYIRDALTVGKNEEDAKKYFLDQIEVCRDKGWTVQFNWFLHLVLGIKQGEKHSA

SMILES | pIC50 (p110γ) | pIC50 (p110β/p85α) | pIC50 (p110δ/p85α) | pIC50 (p110α/p85α)
CNC(=O)C1CN(c2cnc3ccc(-c4ccc5oc(N)nc5c4)cc3n2)C1 [compound 214] | > 6.00 | > 7.00 | > 5.00 | > 7.00
Nc1nc2cc(-c3ccc4ncc(N5CC(C(=O)NC6CC6)C5)nc4c3)ccc2o1 [compound 215] | > 6.00 | > 6.00 | > 5.00 | > 7.00
Nc1nc2cc(-c3ccc4ncc(N5CC(O)C5)nc4c3)ccc2o1 [compound 216] | > 7.00 | > 6.00 | > 5.00 | > 7.00
CN(C)CC(=O)N1CCN(c2cnc3ccc(-c4ccc5oc(N)nc5c4)cc3n2)CC1 [compound 217] | > 6.00 | > 6.00 | > 6.00 | > 7.00
CCN(CC)CCNc1cnc2ccc(-c3ccc4oc(N)nc4c3)cc2n1 [compound 218] | > 5.00 | > 6.00 | > 6.00 | > 6.00
Nc1nc2cc(-c3ccc4ncc(NCCN5CCCC5)nc4c3)ccc2o1 [compound 219] | > 6.00 | > 6.00 | > 6.00 | > 6.00
CCN(CC)CCCNc1cnc2ccc(-c3ccc4oc(N)nc4c3)cc2n1 [compound 220] | > 6.00 | > 6.00 | > 7.00 | > 7.00
Nc1nc2cc(-c3ccc4ncc(NCCCN5CCCC5)nc4c3)ccc2o1 [compound 221] | > 7.00 | > 6.00 | > 7.00 | > 7.00
Nc1nc2cc(-c3ccc4ncc(NCCCN5CCOCC5)nc4c3)ccc2o1 [compound 222] | > 6.00 | > 6.00 | > 7.00 | > 7.00
Nc1nc2cc(-c3ccc4ncc(N5CCN(C(=O)[C@H]6CCCN6)CC5)nc4c3)ccc2o1 [compound 225] | > 7.00 | > 7.00 | > 7.00 | > 7.00
CN1CCN(C2CCN(c3cnc4ccc(-c5ccc6oc(N)nc6c5)cc4n3)CC2)CC1 [compound 227] | > 5.00 | > 6.00 | > 7.00 | > 7.00
Nc1nc2ccc(-c3ccc4nnc(-c5ccncc5)n4c3)cc2o1 [compound 230] | > 6.00 | > 6.00 | > 5.00 | > 5.00
COc1nc(-c2ccc3oc(N)nc3c2)cnc1N [compound 238] | > 6.00 | > 6.00 | > 5.00 | > 6.00
CC(Oc1nc(-c2ccc3oc(N)nc3c2)cnc1N)C(F)(F)F (centres unmarked) [compound 239] | > 5.00 | > 6.00 | > 5.00 | > 5.00
Nc1nc2ccc(-c3ccc4sc(N)nc4c3)cc2o1 [compound 249] | > 7.00 | > 7.00 | > 6.00 | > 7.00
CC(=O)Nc1nc2cc(-c3ccc4nc(N)oc4c3)ccc2s1 [compound 251] | > 7.00 | > 7.00 | > 7.00 | > 7.00
Nc1nc2cc(-c3ccc4ncn(CCN5CCCC5)c(=O)c4c3)ccc2o1 [compound 255] | > 5.00 | > 5.00 | > 5.00 | > 5.00
CCN(CC)CCNC(=O)c1cnc2ccc(-c3ccc4oc(N)nc4c3)cn12 [compound 295] | > 6.00 | > 6.00 | > 6.00 | > 6.00
CCN(CC)CCCNC(=O)c1cnc2ccc(-c3ccc4oc(N)nc4c3)cn12 [compound 302] | > 5.00 | > 5.00 | > 7.00 | > 6.00

SMILES | pIC50 (p110γ) | pIC50 (p110β/p85α) | pIC50 (p110δ/p85α) | pIC50 (p110α/p85α)
CN1CCN(CCNC(=O)c2cnc3ccc(-c4ccc5oc(N)nc5c4)cn23)CC1 [compound 306] | > 6.00 | > 6.00 | > 6.00 | > 7.00
CC(=O)Nc1nc(C)c(-c2ccc3oc(N)nc3c2)s1 [compound 312] | > 7.00 | > 5.00 | > 6.00 | > 6.00
Nc1nc2cc(-c3ccc4ncc(N5CC(N6CCCC6)C5)nc4c3)ccc2o1 [compound 314] | > 5.00 | > 5.00 | > 5.00 | > 6.00
Nc1nc2cc(-c3ccc4ncc(N5CC(n6ccnc6)C5)nc4c3)ccc2o1 [compound 319] | > 6.00 | > 6.00 | > 5.00 | > 7.00
Cc1ccn(C2CN(c3cnc4ccc(-c5ccc6oc(N)nc6c5)cc4n3)C2)n1 [compound 320] | > 5.00 | > 5.00 | > 5.00 | > 7.00
Nc1nc2cc(-c3ccc4ncc(N5CC(N6CC[C@H](O)C6)C5)nc4c3)ccc2o1 [compound 322] | > 6.00 | > 6.00 | > 5.00 | > 7.00
CN1CCN(C2CN(c3cnc4ccc(-c5ccc6oc(N)nc6c5)cc4n3)C2)CC1=O [compound 323] | > 6.00 | > 5.00 | > 5.00 | > 7.00
CCN(CC)C1CN(c2cnc3ccc(-c4ccc5oc(N)nc5c4)cc3n2)C1 [compound 324] | > 6.00 | > 5.00 | > 5.00 | > 7.00
Nc1nc2cc(-c3ccc4ncc(N5CC(N6CCNC(=O)C6)C5)nc4c3)ccc2o1 [compound 325] | > 7.00 | > 6.00 | > 5.00 | > 7.00
Nc1nc2cc(-c3ccc4ncc(N5CC(N6CCNCC6)C5)nc4c3)ccc2o1 [compound 326] | > 6.00 | > 6.00 | > 6.00 | > 7.00
CC(=O)N1CCN(C2CN(c3cnc4ccc(-c5ccc6oc(N)nc6c5)cc4n3)C2)CC1 [compound 327] | > 6.00 | > 5.00 | > 6.00 | > 7.00
CS(=O)(=O)N1CCN(C2CN(c3cnc4ccc(-c5ccc6oc(N)nc6c5)cc4n3)C2)CC1 [compound 328] | > 5.00 | > 5.00 | > 5.00 | > 7.00
CCN1CCN(C2CN(c3cnc4ccc(-c5ccc6oc(N)nc6c5)cc4n3)C2)CC1 [compound 329] | > 5.00 | > 6.00 | > 6.00 | > 7.00
CC(C)N1CCN(C2CN(c3cnc4ccc(-c5ccc6oc(N)nc6c5)cc4n3)C2)CC1 [compound 331] | > 5.00 | > 5.00 | > 5.00 | > 7.00
C[C@H]1CN(c2cnc3ccc(-c4ccc5oc(N)nc5c4)cc3n2)CCN1C [compound 332] | > 6.00 | > 7.00 | > 5.00 | > 6.00
Cc1cn(C2CN(c3cnc4ccc(-c5ccc6oc(N)nc6c5)cc4n3)C2)cn1 [compound 339] | > 6.00 | > 6.00 | > 6.00 | > 7.00
Cc1nccn1C1CCN(c2cnc3ccc(-c4ccc5oc(N)nc5c4)cc3n2)CC1 [compound 344] | > 5.00 | > 5.00 | > 6.00 | > 7.00
Cc1cc(-c2ccc3oc(N)nc3c2)cc2c(C(=O)N3CCOCC3)cnn12 [compound 357] | > 6.00 | > 5.00 | > 5.00 | > 6.00
Nc1nc2cc(-c3ccc4ncc(N5CC(N6CCOCC6)C5)nc4c3)cc(Cl)c2o1 [compound 358] | > 6.00 | > 6.00 | > 6.00 | > 7.00
